Assay results from ChEMBL document CHEMBL5241068, “Biguanides: Species with versatile therapeutic applications” (Eur J Med Chem, 2021).
pEC50, pIC50: −log10 of the molar value.

Columns and labels:
[1] = Inhibition of Brugia malayi DHFR
A2780 = experiment: Antiproliferative activity against human A2780 cells; format: functional, cell-based
[2] = Inhibition of quorum sensing system in Chromobacterium violaceum CV12472
[3] = Lipophilicity, logP of the compound; format: physicochemical; settings: octanol/water
Escherichia coli = experiment: Bactericidal activity against Escherichia coli assessed as time required to kill the bacteria at 95 uM; format: functional
SK-OV-3 = experiment: Antiproliferative activity against human SK-OV-3 cells incubated for 72 hrs by MTT assay; format: functional, cell-based; settings: SK-OV-3, 72 h
IGROV-1 = experiment: Antiproliferative activity against human IGROV-1 cells incubated for 72 hrs by MTT assay; format: functional, cell-based; settings: IGROV-1, 72 h
FaDu = experiment: Anticancer activity against human FaDu cells; format: functional, cell-based
C6661 = experiment: Anticancer activity against human C6661 cells; format: functional, cell-based
[4] = Solubility of compound at pH 8; format: physicochemical; settings: buffer
[5] = target: Replicase polyprotein 1ab (Severe acute respiratory syndrome coronavirus 2) (UniProt P0DTD1); experiment: Binding affinity to SARS CoV-2 3CL protease assessed as gibbs free energy change
[6] = Inhibition of Toxoplasma gondii DHFR
[7] = Selectivity index, ratio of IC50 for rat liver DHFR to IC50 for Toxoplasma gondii DHFR
[8] = Cmax in mouse at 1 mg/kg, po; format: ADME, organism-based; set-up: dose 1 mg/kg, route po; settings: in vivo
[9] = Elimination half life in mouse at 1 mg/kg, po; format: ADME, organism-based; settings: in vivo, read-out: beta t1/2 (converted)
MDA-MB-231 = experiment: Antiproliferative activity against human MDA-MB-231 cells in presence of phenformin; format: functional, cell-based
T47D = experiment: Antiproliferative activity against human T47D cells in presence of phenformin; format: functional, cell-based

`NC(N)=N/C(N)=N/c1ccc(OCc2ccc(Cl)cc2Cl)cc1` showed a pIC50 [1] of 5.20.
For `COc1cc(Cc2cnc(N)nc2N)cc(OC)c1OC` [TRIMETHOPRIM], the pIC50 [1] was 4.89.
Molecule `NC(N)=N/C(N)=N/CCOc1ccn(-c2ccc(Cl)cc2)n1` has a pIC50 (A2780) of 5.16.
Work on `CCc1nc(N)nc(N)c1-c1ccc(Cl)cc1` [PYRIMETHAMINE] yielded a pIC50 [1] of 4.70.
`N=C(N=C(N)N)N(Cc1ccccc1)c1ccccc1` gave a pIC50 [2] of 3.75.
Work on `N=C(N=C(N)N)N(c1ccccc1)c1ccc(N)cc1` yielded a pIC50 [2] of 3.92.
For `N=C(NCCCCCCCCCCNC(=N)Nc1ncc(Cl)cn1)Nc1ncc(Cl)cn1`, the logP [3] was 5.5.
Work on `NC(N)=N/C(N)=N/c1ccc(OCc2cccc(Cl)c2)cc1` yielded a pIC50 [1] of 4.78.
Work on `C=CC(=O)OCCc1ccc(/N=C(N)/N=C(\N)Nc2ccc(Cl)cc2)cc1.Cl` yielded a Time (Escherichia coli) of 30 min.
In the case of `NC(N)=N/C(N)=N/Cc1ccco1`, the pIC50 (SK-OV-3) was 3.42 and the pIC50 (IGROV-1) was 3.82.
For `CCCC[C@@H](CC)CNC(=N)NC(=N)NCCCCCCNC(=N)NC(=N)NC[C@H](CC)CCCC`, the pEC50 (FaDu) was 5.74 and the pEC50 (C6661) was 5.59.
`NC(N)=N/C(N)=N/c1ccc(OCc2ccc(-c3ccccc3)cc2)cc1` gave a pIC50 [1] greater than 5.23.
In the case of `CC1(C)N=C(N)N=C(N)N1c1ccc(OCc2ccc(Cl)cc2Cl)cc1`, the pIC50 [1] was 5.24.
For `Cl.N=C(N)NC(=N)N1CCOCC1`, the solubility [4] was 360 mg/mL and the deltaG [5] was -2.11 kcal/mol.
In the case of `CC1(C)N=C(N)N=C(N)N1c1ccc(OCc2ccc(-c3ccccc3)cc2)cc1`, the pIC50 [6] was 7.92 and the Ratio IC50 [7] was 2.15.
`CN(C)C(=N)N=C(N)N` [METFORMIN] gave a Cmax [8] of 2000 ng/mL and a half-life [9] of 6 h.
For `CN(C)C(=N)NC(=N)N` [METFORMIN], the pIC50 (SK-OV-3) was 3.82, the pIC50 (IGROV-1) was 3.07 and the pIC50 (MDA-MB-231) was 2.40. For the same molecule, the pIC50 (T47D) was 2.03 and the deltaG [5] was -6.72 kcal/mol.
With `N=C(NCCCCCCCCCCCCNC(=N)Nc1ncc(Cl)cn1)Nc1ncc(Cl)cn1` the logP [3] was 5.5.
`Clc1ccc(Nc2ccnc(Nc3ccc(Cl)cc3)n2)cc1` gave a logP [3] of 5.5.
